This is an account of results in ChEMBL document CHEMBL1201862, “PubChem BioAssay data set” (2004).

Some test systems named below: 786-0; CAKI-1; HL-60; HOP-62; MCF7; MDA-N; Malme-3M; NCI-H226; NCI-H460; NCI-H522; SF-268; SF-295; SK-MEL-28; SK-MEL-5; SN12C; T47D; TK-10; UACC-257; UACC-62; UO-31.
Common to all, as to assay: DTP human tumour cell line panel, 48 h

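Results reflect a 48-hour exposure of cells in 96-well plates to compound at five concentrations. GI50 marks 50% less growth.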 Active and inactive are the calls of the source. Rule as the data show it: active = GI50 up to about 1.1 µM and inactive = higher.

By GI50 is commonly meant the concentration giving 50% growth inhibition. `O=C1CCCCN1C(=O)c1ccc([N+](=O)[O-])cc1`: the GI50 with 786-0 is > 100 µM (inactive); in the assay with CAKI-1, > 100 µM (inactive); in the assay with HL-60 it was > 100 µM (inactive); with HOP-62, > 100 µM (inactive); with MCF7, > 100 µM (inactive); in the assay with MDA-N, 57.7 µM (inactive). In addition, the GI50 in the assay with Malme-3M, with NCI-H226, in the assay on NCI-H460, with NCI-H522, in the assay with SF-268 and in the assay with SF-295 was > 100 µM (inactive) in each case. For the same compound, the GI50 with SK-MEL-28 was > 100 µM (inactive); in the assay with SK-MEL-5, > 100 µM (inactive); with SN12C, 24 µM (inactive); in the assay on T47D, > 100 µM (inactive); in the assay on TK-10 it was > 100 µM (inactive); with UACC-257, > 100 µM (inactive). Further, the GI50 is 37.3 µM (inactive) in the assay with UACC-62 and > 100 µM (inactive) in the assay on UO-31.

In the case of `CCNc1cc2c3c(c1)CCCN3CCC2`, the GI50 was 9.66 µM (inactive) with 786-0; 31.6 µM (inactive) in the assay with CAKI-1; 11.8 µM (inactive) with HL-60; 14.6 µM (inactive) with HOP-62; 40.7 µM (inactive) in the assay with MCF7; 3.1 µM (inactive) in the assay with MDA-N. The GI50 with Malme-3M is 19.3 µM (inactive); in the assay with NCI-H226, 20.4 µM (inactive); with NCI-H460, 15.1 µM (inactive); in the assay on NCI-H522, 21 µM (inactive); in the assay on SF-268, 16.9 µM (inactive); with SF-295 it was 18.2 µM (inactive). The GI50 in the assay with SK-MEL-28 was 31.3 µM (inactive); in the assay with SK-MEL-5, 13.7 µM (inactive); with SN12C, 2.87 µM (inactive); in the assay on T47D it was 18.1 µM (inactive); in the assay with TK-10, 31.8 µM (inactive); in the assay with UACC-257, 19.7 µM (inactive). In addition, the GI50 is 17.7 µM (inactive) in the assay with UACC-62 and 41.9 µM (inactive) with UO-31.

Regarding `O=S(=O)(O)c1cc(S(=O)(=O)O)c2c(/N=N/c3ccc(/N=N/c4ccccc4)cc3)c(O)ccc2c1`, the GI50 in the assay with 786-0, with CAKI-1, in the assay with HL-60, in the assay on HOP-62, in the assay on MCF7 and with MDA-N was > 100 µM (inactive) throughout. In addition, the GI50 with Malme-3M, in the assay with NCI-H226, in the assay on NCI-H460, in the assay on NCI-H522, with SF-268 and in the assay on SF-295 was > 100 µM (inactive) throughout. For the same compound, the GI50 in the assay with SK-MEL-28, in the assay with SK-MEL-5, in the assay with SN12C, in the assay on T47D, in the assay with TK-10 and in the assay with UACC-257 was > 100 µM (inactive) each time. The GI50 in the assay with UACC-62 and with UO-31 was > 100 µM (inactive) each time.

For the compound `CC[C@@]1(O)C(=O)OCc2c1cc1n(c2=O)Cc2c-1nc1ccccc1c2/C=N\NC(=O)C(N)CC(C)C` (stereo not given in full), the GI50 with 786-0 is < 0.01 µM (active); in the assay with CAKI-1 it was < 0.01 µM (active); with HL-60, < 0.01 µM (active); in the assay on HOP-62 it was < 0.01 µM (active); with MCF7, < 0.01 µM (active); in the assay with MDA-N, 0.171 µM (active). For the same compound, the GI50 in the assay with Malme-3M was 0.107 µM (active); in the assay with NCI-H226, 0.0277 µM (active); with NCI-H460, < 0.01 µM (active); with NCI-H522 it was < 0.0175 µM (active); in the assay with SF-268, < 0.01 µM (active); in the assay on SF-295 it was < 0.01 µM (active). The 50% growth inhibitory concentration (GI50) with SK-MEL-28 is 0.605 µM (active); in the assay with SK-MEL-5, < 0.0128 µM (active); in the assay on SN12C, < 0.01 µM (active); in the assay with T47D it was < 0.01 µM (active); in the assay on TK-10, 3.12 µM (inactive); in the assay with UACC-257 it was 0.0536 µM (active). Besides, the GI50 is < 0.01 µM (active) with UACC-62 and < 0.0106 µM (active) with UO-31.

For `CN(C)c1cccc(NC2=NCCO2)c1`, the GI50 in the assay on 786-0 was 46.6 µM (inactive); in the assay with CAKI-1, > 100 µM (inactive); in the assay with HL-60, 23.1 µM (inactive); with HOP-62, 81.1 µM (inactive); in the assay on MCF7 it was 50.5 µM (inactive); in the assay on MDA-N it was 17.5 µM (inactive). The GI50 in the assay on Malme-3M is 33.9 µM (inactive); with NCI-H226 it was 47.2 µM (inactive); in the assay on NCI-H460 it was 32.4 µM (inactive); in the assay with NCI-H522 it was 80.2 µM (inactive); with SF-268, 92 µM (inactive); in the assay on SF-295 it was > 100 µM (inactive). For the same compound, the GI50 is 42.8 µM (inactive) with SK-MEL-28; 43.6 µM (inactive) with SK-MEL-5; 52.5 µM (inactive) with SN12C; 69.2 µM (inactive) with T47D; > 100 µM (inactive) with TK-10; 48.9 µM (inactive) in the assay on UACC-257. The GI50 was 50.7 µM (inactive) in the assay on UACC-62 and > 100 µM (inactive) in the assay with UO-31.

Take `N=C(N)NCC1CCCCCCN1` (stereo not given): the GI50 in the assay on 786-0, in the assay with CAKI-1, in the assay on HL-60, with HOP-62, in the assay on MCF7 and with MDA-N was > 100 µM (inactive) each time. Further, the GI50 in the assay with Malme-3M, in the assay on NCI-H226, in the assay on NCI-H460, in the assay with NCI-H522, in the assay with SF-268 and in the assay with SF-295 was > 100 µM (inactive) in each case. Also, the GI50 with SK-MEL-28, in the assay with SK-MEL-5, in the assay with SN12C, in the assay on T47D, with TK-10 and with UACC-257 was > 100 µM (inactive) each time. Besides, the GI50 in the assay with UACC-62 and in the assay with UO-31 was > 100 µM (inactive) in each case.

On to `CC1(O)CC(=O)c2c(cc3ccc(-c4c5c(c(O)c6c(O)cccc46)C(=O)CC(C)(O)C5)c(O)c3c2O)C1` (stereo not given), for which the GI50 was 0.435 µM (active) with 786-0; 0.401 µM (active) with CAKI-1; 0.16 µM (active) in the assay on HL-60; 0.296 µM (active) in the assay with HOP-62; 0.199 µM (active) with MCF7; 0.867 µM (active) with MDA-N. In addition, the concentration for 50% growth inhibition (GI50) was 0.248 µM (active) in the assay with Malme-3M; 0.448 µM (active) in the assay with NCI-H226; 0.16 µM (active) in the assay on NCI-H460; 0.213 µM (active) with NCI-H522; 0.194 µM (active) in the assay on SF-268; 0.179 µM (active) in the assay with SF-295. In addition, the GI50 in the assay on SK-MEL-28 is 0.326 µM (active); in the assay on SK-MEL-5 it was 0.187 µM (active); in the assay with SN12C it was 1.39 µM (inactive); in the assay on T47D, 0.562 µM (active); in the assay on TK-10, 0.767 µM (active); with UACC-257, 0.324 µM (active). Also, the GI50 is 1.46 µM (inactive) in the assay on UACC-62 and 0.212 µM (active) in the assay with UO-31.
